Results as given in patent US20020028479A1, “Methods for the detection of fungal growth” (priority 2000, published 2002).

What was measured:
A. nidulans 200092 = test: Spore germination with indicator/electron donor added at T0, viewed microscopically; assay type: cell-based; settings: added at the same time as spores (T0), no viability at 48 hours
Method: Spores from a frozen stock of A. nidulans 200092 at 1.63×10^7/ml) were diluted to 5×10^3/ml to yield 500 spores per well in yeast extract with glucose broth supplemented with lysine and uridine.
Tetrazolium salts (listed in Table 1) were each dissolved to 1 mg/ml in phosphate-buffered saline (PBS) or water, aliquotted, and frozen. Electron coupling agents phenazine methosulfate (PMS; lot 194-03) and menadione (MEN; lot 170-95) were prepared at 5 mM in PBS and 10 mM in acetone, respectively. Cultures had no electron coupling reagent added, PMS (120 μl of PMS per 12 ml of tetrazolium salt) or MEN (42 μl per 12 ml of tetrazolium salt). Each well received 25 μl of indicator.
Indicator (with or without electron coupling reagent) was added at the same time as spores (T0), following ˜24 hours of incubation (T24), or following ˜48 hours of incubation (T48). Wells were viewed ˜2 hours post addition. NC denotes no color seen.
Microscopically, when compared to wells that had no indicator added or had PMS added, it was evident that the spores were present but had not germinated. At 48 hours, these same wells still had not shown any signs of viability.

[1] = test system: Aspergillus nidulans 200092; test: MTS/MEN growth inhibition assay, OD490;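 note: fungal spore suspensions in 96-well plates with MTS/MEN indicator, absorbance read after 2 h and again after further development up to 24 h, controls containing medium only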
Method: Spores from a frozen stock of Aspergillus nidulans 200092 (at 1.63×10^7/ml) were diluted to 5×10^3/ml to yield 500 spores per well in yeast extract with glucose broth supplemented with lysine and uridine.
MEN was added at a ratio of 42 μl MEN per 12 ml of MTS. Each well received 25 μl indicator.
98 μl of the spore suspension was added to the wells of a 96 well plate. Control wells received media only. […] Plates were then incubated for 2 hours and then read at OD490. MTS/MEN was then allowed to develop for an additional period of time up to 24 hours and the plates was re-read.

[2] = Aspergillus nidulans, 200092, 2 h
[3] = Aspergillus nidulans, 200092, 24 h

Question: With `COc1cc(-c2ccc(-[n+]3nc(-c4ccc([N+](=O)[O-])cc4)nn3-c3ccc([N+](=O)[O-])cc3)c(OC)c2)ccc1-[n+]1nc(-c2ccc([N+](=O)[O-])cc2)nn1-c1ccc([N+](=O)[O-])cc1.[Cl-].[Cl-]` [TNTB, Tetranitro Blue Tetrazolium] as the molecule, how does the “germination or growth of the spores” value (A. nidulans 200092) read?
Answer: The value was “inhibit germination or growth of the spores”.

Question: Which results are given for `Clc1ccccc1C(c1ccccc1)(c1ccccc1)n1ccnc1` [Clotrimazole, clotrimazole]?
Answer: inhibition at 0.0039 µg/mL [1, 2]: 15.8%; inhibition at 0.0078 µg/mL [1, 2]: 35.4%; inhibition at 0.0156 µg/mL [1, 2]: 26%; inhibition at 0.0313 µg/mL [1, 2]: 56.8%; inhibition at 0.0625 µg/mL [1, 2]: 86.5%; inhibition at 0.125 µg/mL [1, 2]: 94.6%; inhibition at 0.25 µg/mL [1, 2]: 93%; inhibition at 0.5 µg/mL [1, 2]: 93%; inhibition at 1 µg/mL [1, 2]: 94.5%; inhibition at 2 µg/mL [1, 2]: 93.4%; inhibition at 4 µg/mL [1, 2]: 95.8%; inhibition at 8 µg/mL [1, 2]: 94.4%; inhibition at 16 µg/mL [1, 2]: 94.4%; inhibition at 32 µg/mL [1, 2]: 91.5%; inhibition at 64 µg/mL [1, 2]: 86%; inhibition at 0.0039 µg/mL [1, 3]: 6.6%; inhibition at 0.0078 µg/mL [1, 3]: 48.5%; inhibition at 0.0156 µg/mL [1, 3]: 47.2%; inhibition at 0.0313 µg/mL [1, 3]: 70.1%; inhibition at 0.0625 µg/mL [1, 3]: 77%; inhibition at 0.125 µg/mL [1, 3]: 93.6%; inhibition at 0.25 µg/mL [1, 3]: 91.6%; inhibition at 0.5 µg/mL [1, 3]: 92%; inhibition at 1 µg/mL [1, 3]: 93.9%; inhibition at 2 µg/mL [1, 3]: 92.3%; inhibition at 4 µg/mL [1, 3]: 96.2%; inhibition at 8 µg/mL [1, 3]: 94.2%; inhibition at 16 µg/mL [1, 3]: 93.4%; inhibition at 32 µg/mL [1, 3]: 92.1%; inhibition at 64 µg/mL [1, 3]: 91.9%

Question: For `O=[N+]([O-])c1ccc(-[n+]2nc(-c3ccccc3)nn2-c2ccc(I)cc2)cc1.[Cl-]` [INT, p-Iodonitrotetrazolium Violet], which “germination or growth of the spores” value (A. nidulans 200092) is on record?
Answer: Its value is “inhibit germination or growth of the spores”.

Question: Which “germination or growth of the spores” value (A. nidulans 200092) does the source give for `COc1cc(-c2ccc(-n3nc(-c4ccccc4)n[n+]3-c3ccccc3)c(OC)c2)ccc1-n1nc(-c2ccccc2)n[n+]1-c1ccccc1` [BT, Tetrazolium Blue Chloride] here?
Answer: Its value is “inhibit germination or growth of the spores”.

Question: Which “germination or growth of the spores” value (A. nidulans 200092) does the source give for `c1ccc(-c2nn(-c3ccccc3)[n+](-c3cccc4ccccc34)n2)cc1` [TV, Tetrazolium Violet] here?
Answer: Its value is “inhibit germination or growth of the spores”.

Question: Which IC50 [1, 2] does the source give for `C[n+]1cc2c3c(ccc2c2ccc4cc5c(cc4c21)OCO5)OCO3` [Sanguinarine, sanguinarine] here?
Answer: The IC50 was 1.42 µg/mL.

Question: And the inhibition at 0.0061 µg/mL [1, 2]?
Answer: The inhibition at 0.0061 µg/mL was 16.2%.

Question: And the inhibition at 0.0122 µg/mL [1, 2]?
Answer: Its inhibition at 0.0122 µg/mL is -3.1%.

Question: And the inhibition at 0.0244 µg/mL [1, 2]?
Answer: The inhibition at 0.0244 µg/mL was 15.6%.

Question: And the inhibition at 0.0488 µg/mL [1, 2]?
Answer: Its inhibition at 0.0488 µg/mL is 15.7%.

Question: And the inhibition at 0.0977 µg/mL [1, 2]?
Answer: Its inhibition at 0.0977 µg/mL is 42.9%.

Question: What about the inhibition at 0.1953 µg/mL [1, 2] of the same molecule?
Answer: The inhibition at 0.1953 µg/mL was 10.2%.

Question: And the inhibition at 0.3906 µg/mL [1, 2]?
Answer: The inhibition at 0.3906 µg/mL was 33.8%.

Question: What about the inhibition at 0.7813 µg/mL [1, 2] of the same molecule?
Answer: Its inhibition at 0.7813 µg/mL is 45%.

Question: And the inhibition at 1.5625 µg/mL [1, 2]?
Answer: The inhibition at 1.5625 µg/mL was 49.6%.

Question: And the inhibition at 3.125 µg/mL [1, 2]?
Answer: Its inhibition at 3.125 µg/mL is 50.8%.

Question: What about the inhibition at 6.25 µg/mL [1, 2] of the same molecule?
Answer: Its inhibition at 6.25 µg/mL is 86.9%.

Question: What about the inhibition at 12.5 µg/mL [1, 2] of the same molecule?
Answer: Its inhibition at 12.5 µg/mL is 89.4%.

Question: What about the inhibition at 25 µg/mL [1, 2] of the same molecule?
Answer: The inhibition at 25 µg/mL was 88.4%.

Question: What about the inhibition at 50 µg/mL [1, 2] of the same molecule?
Answer: Its inhibition at 50 µg/mL is 77.3%.

Question: What about the inhibition at 100 µg/mL [1, 2] of the same molecule?
Answer: Its inhibition at 100 µg/mL is 53.3%.

Question: What about the inhibition at 200 µg/mL [1, 2] of the same molecule?
Answer: Its inhibition at 200 µg/mL is 7%.

Question: And the IC50 [1, 3]?
Answer: The IC50 was 2.77 µg/mL.

Question: And the inhibition at 0.0061 µg/mL [1, 3]?
Answer: Its inhibition at 0.0061 µg/mL is 10.9%.

Question: And the inhibition at 0.0122 µg/mL [1, 3]?
Answer: The inhibition at 0.0122 µg/mL was -1.7%.

Question: What about the inhibition at 0.0244 µg/mL [1, 3] of the same molecule?
Answer: The inhibition at 0.0244 µg/mL was 5.1%.

Question: What about the inhibition at 0.0488 µg/mL [1, 3] of the same molecule?
Answer: The inhibition at 0.0488 µg/mL was 7.9%.

Question: And the inhibition at 0.0977 µg/mL [1, 3]?
Answer: The inhibition at 0.0977 µg/mL was 18.4%.

Question: And the inhibition at 0.1953 µg/mL [1, 3]?
Answer: The inhibition at 0.1953 µg/mL was -2.4%.

Question: And the inhibition at 0.3906 µg/mL [1, 3]?
Answer: The inhibition at 0.3906 µg/mL was 12.6%.

Question: And the inhibition at 0.7813 µg/mL [1, 3]?
Answer: Its inhibition at 0.7813 µg/mL is 19.7%.

Question: And the inhibition at 1.5625 µg/mL [1, 3]?
Answer: The inhibition at 1.5625 µg/mL was 39.8%.

Question: And the inhibition at 3.125 µg/mL [1, 3]?
Answer: Its inhibition at 3.125 µg/mL is 42.2%.

Question: What about the inhibition at 6.25 µg/mL [1, 3] of the same molecule?
Answer: Its inhibition at 6.25 µg/mL is 86.7%.

Question: What about the inhibition at 12.5 µg/mL [1, 3] of the same molecule?
Answer: The inhibition at 12.5 µg/mL was 93.7%.

Question: What about the inhibition at 25 µg/mL [1, 3] of the same molecule?
Answer: Its inhibition at 25 µg/mL is 92.4%.

Question: What about the inhibition at 50 µg/mL [1, 3] of the same molecule?
Answer: Its inhibition at 50 µg/mL is 91.7%.

Question: And the inhibition at 100 µg/mL [1, 3]?
Answer: The inhibition at 100 µg/mL was 87.5%.

Question: And the inhibition at 200 µg/mL [1, 3]?
Answer: Its inhibition at 200 µg/mL is 79.5%.

Question: `CC1=CC(=O)c2ccccc2C1=O` [MEN, menadione] was tested. Which “germination or growth of the spores” value (A. nidulans 200092) did it give?
Answer: Its value is “inhibit germination or growth of the spores”.
